Assay results reported in ChEMBL document CHEMBL1909046, “DrugMatrix in vitro pharmacology data”.

Assays:
[1] = DRUGMATRIX: Sodium/nucleoside co-transporter radioligand binding (ligand: nitrobenzylthioinosine); format: cell membranes, Cavia porcellus, Dunkin-Hartley, Cerebral cortex, Membrane; conditions: Not Active = under 50% inhibition at 10 µM
Leukotriene C4 synthase = target: T1, Leukotriene C4 synthase (Cavia porcellus, UniProt A6XA80); format: tissue-based, Lung;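 note: enzyme inhibition assay of leukotriene C4 synthase, using LTA4 as the substrate; in other assays of this panel Not Active means under 50% inhibition at 10 µM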
T1 sequence (A6XA80 whole entry): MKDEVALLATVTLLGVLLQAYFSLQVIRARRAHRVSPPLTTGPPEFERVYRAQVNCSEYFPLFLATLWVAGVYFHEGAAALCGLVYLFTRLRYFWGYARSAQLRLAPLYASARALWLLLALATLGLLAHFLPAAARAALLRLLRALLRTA

Nitric oxide synthase 1 = Nitric oxide synthase 1 (Rattus norvegicus, UniProt P29476); format: tissue-based, Cerebellum; note: in other assays of this panel Not Active means under 50% inhibition at 10 µM
Progesterone receptor = target: T2, Progesterone receptor (Bos taurus, UniProt Q690N0); assay: DRUGMATRIX: Progesterone radioligand binding (ligand: [3H] R-5020); format: tissue-based, Uterus; conditions: Not Active = under 50% inhibition at 10 µM
T2 sequence (Q690N0 whole entry): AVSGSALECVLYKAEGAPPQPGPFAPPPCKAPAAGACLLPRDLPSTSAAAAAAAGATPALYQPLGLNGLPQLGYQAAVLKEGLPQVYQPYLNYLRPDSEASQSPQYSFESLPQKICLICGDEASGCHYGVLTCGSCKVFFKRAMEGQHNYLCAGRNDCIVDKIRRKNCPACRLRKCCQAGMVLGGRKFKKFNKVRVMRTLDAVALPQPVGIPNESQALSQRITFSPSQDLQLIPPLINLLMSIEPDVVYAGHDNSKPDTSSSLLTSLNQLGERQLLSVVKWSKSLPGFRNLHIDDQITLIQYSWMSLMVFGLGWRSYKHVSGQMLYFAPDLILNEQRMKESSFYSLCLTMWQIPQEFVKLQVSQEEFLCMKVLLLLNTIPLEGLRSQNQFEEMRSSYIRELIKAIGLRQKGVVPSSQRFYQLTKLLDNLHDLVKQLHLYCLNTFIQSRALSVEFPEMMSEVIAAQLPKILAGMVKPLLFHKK

[2] = target: T3, Receptor-type tyrosine-protein phosphatase C (Homo sapiens, UniProt P08575); set-up: species or system Escherichia coli;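 note: inhibition of CD45 enzyme activity measured using DiFMUP as substrate; in other assays of this panel Not Active means under 50% inhibition at 10 µM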
T3 sequence (P08575 whole entry): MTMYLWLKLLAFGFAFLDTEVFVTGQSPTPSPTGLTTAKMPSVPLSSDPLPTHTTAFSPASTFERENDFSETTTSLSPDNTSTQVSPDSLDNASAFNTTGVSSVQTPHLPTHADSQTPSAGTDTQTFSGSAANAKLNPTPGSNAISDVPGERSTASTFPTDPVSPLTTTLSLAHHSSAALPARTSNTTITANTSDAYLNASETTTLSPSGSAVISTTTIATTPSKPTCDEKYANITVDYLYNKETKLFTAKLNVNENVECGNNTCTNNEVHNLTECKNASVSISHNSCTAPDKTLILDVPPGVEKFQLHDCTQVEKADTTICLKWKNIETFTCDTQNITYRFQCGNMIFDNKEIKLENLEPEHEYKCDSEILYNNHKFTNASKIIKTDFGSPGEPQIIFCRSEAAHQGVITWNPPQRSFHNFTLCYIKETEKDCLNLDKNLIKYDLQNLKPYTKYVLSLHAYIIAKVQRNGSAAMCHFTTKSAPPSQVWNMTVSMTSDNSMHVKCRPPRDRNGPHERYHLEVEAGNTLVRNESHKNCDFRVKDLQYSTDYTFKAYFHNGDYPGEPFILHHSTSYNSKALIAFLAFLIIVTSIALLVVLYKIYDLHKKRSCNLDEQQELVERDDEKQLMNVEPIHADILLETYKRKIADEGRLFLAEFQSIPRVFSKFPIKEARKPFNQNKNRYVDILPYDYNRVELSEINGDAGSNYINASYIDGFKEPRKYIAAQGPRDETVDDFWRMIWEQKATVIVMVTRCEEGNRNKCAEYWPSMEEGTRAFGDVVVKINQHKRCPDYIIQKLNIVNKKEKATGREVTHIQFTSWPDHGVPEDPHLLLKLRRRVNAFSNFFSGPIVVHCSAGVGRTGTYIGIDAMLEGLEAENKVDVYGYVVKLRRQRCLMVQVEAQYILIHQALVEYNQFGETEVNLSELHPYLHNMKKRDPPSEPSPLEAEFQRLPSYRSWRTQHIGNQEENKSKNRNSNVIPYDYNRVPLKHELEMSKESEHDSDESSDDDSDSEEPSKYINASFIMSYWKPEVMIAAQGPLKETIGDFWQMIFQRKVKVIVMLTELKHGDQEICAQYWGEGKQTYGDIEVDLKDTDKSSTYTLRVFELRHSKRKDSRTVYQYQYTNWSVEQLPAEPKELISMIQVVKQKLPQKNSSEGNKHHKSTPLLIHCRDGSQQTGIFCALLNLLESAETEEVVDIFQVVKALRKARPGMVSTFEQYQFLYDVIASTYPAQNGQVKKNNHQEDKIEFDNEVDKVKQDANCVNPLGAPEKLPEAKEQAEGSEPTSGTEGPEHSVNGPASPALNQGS

Cytochrome P450 2C19 = Cytochrome P450 2C19 (Homo sapiens, UniProt P33261); conditions: bti-tn-5b1-4; note: in other assays of this panel Not Active means under 50% inhibition at 10 µM
Estrogen receptor = target: T4, Estrogen receptor (Homo sapiens, UniProt P03372); conditions: sf9; note: in other assays of this panel Not Active means under 50% inhibition at 10 µM
T4 sequence (P03372 whole entry): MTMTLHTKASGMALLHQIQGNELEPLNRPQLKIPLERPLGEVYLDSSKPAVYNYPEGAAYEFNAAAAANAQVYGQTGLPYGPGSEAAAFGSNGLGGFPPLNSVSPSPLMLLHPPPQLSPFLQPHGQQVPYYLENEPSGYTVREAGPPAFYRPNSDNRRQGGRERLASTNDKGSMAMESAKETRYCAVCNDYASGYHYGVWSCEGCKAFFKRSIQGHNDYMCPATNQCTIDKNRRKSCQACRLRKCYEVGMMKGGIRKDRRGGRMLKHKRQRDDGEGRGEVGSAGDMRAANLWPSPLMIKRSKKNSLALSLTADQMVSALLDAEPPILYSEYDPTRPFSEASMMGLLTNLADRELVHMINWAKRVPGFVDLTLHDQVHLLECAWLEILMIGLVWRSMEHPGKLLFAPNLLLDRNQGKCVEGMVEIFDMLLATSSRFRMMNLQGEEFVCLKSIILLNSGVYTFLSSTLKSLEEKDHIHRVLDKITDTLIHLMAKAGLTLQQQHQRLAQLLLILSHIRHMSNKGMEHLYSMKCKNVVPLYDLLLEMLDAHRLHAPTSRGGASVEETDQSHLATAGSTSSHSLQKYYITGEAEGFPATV

Nitric oxide synthase 1, sequence (P29476 whole entry): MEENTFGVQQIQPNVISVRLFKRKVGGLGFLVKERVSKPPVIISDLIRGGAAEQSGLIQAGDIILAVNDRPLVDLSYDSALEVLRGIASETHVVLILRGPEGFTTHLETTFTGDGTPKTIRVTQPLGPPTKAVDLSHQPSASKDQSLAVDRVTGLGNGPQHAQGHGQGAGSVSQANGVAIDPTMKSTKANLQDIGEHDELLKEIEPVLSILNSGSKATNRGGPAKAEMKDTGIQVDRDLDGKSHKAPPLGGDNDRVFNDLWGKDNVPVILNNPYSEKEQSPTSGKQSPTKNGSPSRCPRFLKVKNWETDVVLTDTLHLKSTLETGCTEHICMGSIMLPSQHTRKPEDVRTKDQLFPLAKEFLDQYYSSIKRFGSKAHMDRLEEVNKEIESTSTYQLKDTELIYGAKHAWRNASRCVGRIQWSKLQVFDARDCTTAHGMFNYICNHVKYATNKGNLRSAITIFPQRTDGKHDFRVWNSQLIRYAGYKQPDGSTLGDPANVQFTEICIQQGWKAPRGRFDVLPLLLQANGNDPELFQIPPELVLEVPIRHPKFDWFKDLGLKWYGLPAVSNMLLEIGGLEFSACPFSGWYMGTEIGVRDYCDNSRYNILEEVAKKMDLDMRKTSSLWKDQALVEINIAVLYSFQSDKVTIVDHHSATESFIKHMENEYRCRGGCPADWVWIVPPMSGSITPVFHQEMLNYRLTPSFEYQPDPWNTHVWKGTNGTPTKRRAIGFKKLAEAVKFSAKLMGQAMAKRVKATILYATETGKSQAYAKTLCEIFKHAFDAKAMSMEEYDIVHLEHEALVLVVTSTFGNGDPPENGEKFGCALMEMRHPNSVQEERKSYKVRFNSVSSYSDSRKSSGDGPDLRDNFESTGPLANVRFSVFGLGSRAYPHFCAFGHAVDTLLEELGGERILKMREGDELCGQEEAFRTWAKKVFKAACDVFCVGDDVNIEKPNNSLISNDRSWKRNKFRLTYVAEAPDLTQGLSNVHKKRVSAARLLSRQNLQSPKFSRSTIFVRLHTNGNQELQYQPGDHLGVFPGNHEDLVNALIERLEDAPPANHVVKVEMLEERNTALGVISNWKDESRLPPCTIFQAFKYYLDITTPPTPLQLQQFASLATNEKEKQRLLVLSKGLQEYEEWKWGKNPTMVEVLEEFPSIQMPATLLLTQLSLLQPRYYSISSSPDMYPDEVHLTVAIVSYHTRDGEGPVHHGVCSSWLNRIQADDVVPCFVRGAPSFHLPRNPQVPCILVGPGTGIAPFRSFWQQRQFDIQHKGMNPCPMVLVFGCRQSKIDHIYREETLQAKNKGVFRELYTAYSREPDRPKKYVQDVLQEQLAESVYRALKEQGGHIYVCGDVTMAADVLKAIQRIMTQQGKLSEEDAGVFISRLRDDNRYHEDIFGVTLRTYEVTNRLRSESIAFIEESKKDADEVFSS
Cytochrome P450 2C19, sequence (P33261 whole entry): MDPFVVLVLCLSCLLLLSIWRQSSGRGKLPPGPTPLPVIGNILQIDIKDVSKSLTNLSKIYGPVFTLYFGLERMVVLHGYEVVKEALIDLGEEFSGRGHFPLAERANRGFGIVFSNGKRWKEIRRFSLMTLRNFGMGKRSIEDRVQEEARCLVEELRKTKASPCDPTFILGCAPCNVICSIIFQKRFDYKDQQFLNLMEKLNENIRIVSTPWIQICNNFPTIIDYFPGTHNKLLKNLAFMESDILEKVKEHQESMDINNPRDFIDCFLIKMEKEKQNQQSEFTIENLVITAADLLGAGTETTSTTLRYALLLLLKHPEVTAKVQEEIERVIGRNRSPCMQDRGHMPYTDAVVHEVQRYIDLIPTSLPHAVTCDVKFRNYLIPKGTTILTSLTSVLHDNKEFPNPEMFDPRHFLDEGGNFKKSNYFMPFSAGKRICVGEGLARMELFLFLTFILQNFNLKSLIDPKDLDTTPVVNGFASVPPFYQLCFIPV

CADMIUM DICHLORIDE
Not Active: IC50 [1] | Ki [1] | IC50 (Leukotriene C4 synthase) | Ki (Leukotriene C4 synthase) | IC50 (Nitric oxide synthase 1) | Ki (Nitric oxide synthase 1) | IC50 (Progesterone receptor) | Ki (Progesterone receptor) | IC50 [2] | Ki [2] | IC50 (Cytochrome P450 2C19) | Ki (Cytochrome P450 2C19) | IC50 (Estrogen receptor) | Ki (Estrogen receptor)

O=C(N[C@H](CO)[C@H](O)c1ccc([N+](=O)[O-])cc1)C(Cl)Cl [CHLORAMPHENICOL]
Not Active: IC50 [1] | Ki [1] | IC50 (Leukotriene C4 synthase) | IC50 (Nitric oxide synthase 1) | IC50 (Progesterone receptor) | IC50 [2] | IC50 (Estrogen receptor)

CC(C)(C(=O)c1cccnc1)c1cccnc1 [METYRAPONE]
Not Active: IC50 [1] | Ki [1] | IC50 (Leukotriene C4 synthase) | IC50 (Nitric oxide synthase 1) | IC50 (Progesterone receptor) | IC50 [2] | IC50 (Cytochrome P450 2C19) | Ki (Cytochrome P450 2C19) | IC50 (Estrogen receptor)

CC(=O)Nc1cccc(O)c1 [METACETAMOL]
Not Active: IC50 [1] | Ki [1] | IC50 (Leukotriene C4 synthase) | IC50 (Nitric oxide synthase 1) | IC50 (Progesterone receptor) | IC50 [2] | IC50 (Cytochrome P450 2C19) | Ki (Cytochrome P450 2C19) | IC50 (Estrogen receptor)

NC(=O)c1cnccn1 [PYRAZINAMIDE]
Not Active: IC50 [1] | Ki [1] | IC50 (Leukotriene C4 synthase) | IC50 (Nitric oxide synthase 1) | IC50 (Progesterone receptor) | IC50 [2] | IC50 (Cytochrome P450 2C19) | Ki (Cytochrome P450 2C19) | IC50 (Estrogen receptor)

CC(C)(Oc1ccc(C2CCCc3ccccc32)cc1)C(=O)O (stereo not given) [NAFENOPIN]
Not Active: IC50 [1] | Ki [1] | IC50 (Leukotriene C4 synthase) | IC50 (Nitric oxide synthase 1) | IC50 (Progesterone receptor) | IC50 [2] | IC50 (Cytochrome P450 2C19) | Ki (Cytochrome P450 2C19) | IC50 (Estrogen receptor)

CCn1cc(C(=O)O)c(=O)c2cc(F)c(N3CCN(C)CC3)cc21 [PEFLOXACIN]
Not Active: IC50 [1] | Ki [1] | IC50 (Leukotriene C4 synthase) | IC50 (Nitric oxide synthase 1) | IC50 (Progesterone receptor) | IC50 [2] | IC50 (Estrogen receptor)

CCCC(CCC)C(=O)O [VALPROIC ACID]
Not Active: IC50 [1] | Ki [1] | IC50 (Leukotriene C4 synthase) | IC50 (Nitric oxide synthase 1) | IC50 (Progesterone receptor) | IC50 [2] | IC50 (Cytochrome P450 2C19) | Ki (Cytochrome P450 2C19) | IC50 (Estrogen receptor)

S=C=Nc1cccc2ccccc12 [1-NAPHTHYLISOTHIOCYANATE]
Not Active: IC50 [1] | Ki [1] | IC50 (Leukotriene C4 synthase) | IC50 (Nitric oxide synthase 1) | IC50 (Progesterone receptor) | IC50 [2] | IC50 (Cytochrome P450 2C19) | Ki (Cytochrome P450 2C19) | IC50 (Estrogen receptor)

Cc1ccccc1C(=O)N1CCC(Cc2ccccc2)CC1
Not Active: IC50 [1] | Ki [1] | IC50 (Leukotriene C4 synthase) | IC50 (Nitric oxide synthase 1) | IC50 (Progesterone receptor) | IC50 [2] | IC50 (Estrogen receptor)

C[C@](O)(CS(=O)(=O)c1ccc(F)cc1)C(=O)Nc1ccc(C#N)c(C(F)(F)F)c1 [(R)-BICALUTAMIDE]
Not Active: IC50 [1] | Ki [1] | IC50 (Leukotriene C4 synthase) | IC50 (Nitric oxide synthase 1) | IC50 (Progesterone receptor) | IC50 [2] | IC50 (Estrogen receptor)

CCN[C@@H]1C[C@H](N)[C@@H](O[C@H]2OC(CN)=CC[C@H]2N)[C@H](O)[C@H]1O[C@H]1OC[C@](C)(O)[C@H](NC)[C@H]1O [NETILMICIN]
Not Active: IC50 [1] | Ki [1] | IC50 (Leukotriene C4 synthase) | IC50 (Nitric oxide synthase 1) | IC50 (Progesterone receptor) | IC50 [2] | IC50 (Estrogen receptor)

O=NN(CCCl)C(=O)NCCCl [CARMUSTINE]
Not Active: IC50 [1] | Ki [1] | IC50 (Leukotriene C4 synthase) | IC50 (Nitric oxide synthase 1) | IC50 (Progesterone receptor) | IC50 [2] | IC50 (Estrogen receptor)

CC1=C(C(=O)O)N2C(=O)[C@@H](NC(=O)[C@H](N)c3ccccc3)[C@H]2SC1 [CEPHALEXIN ANHYDROUS]
Not Active: IC50 [1] | Ki [1] | IC50 (Leukotriene C4 synthase) | IC50 (Nitric oxide synthase 1) | IC50 (Progesterone receptor) | IC50 [2] | IC50 (Estrogen receptor)

COC(=O)C1=C(C)NC(C)=C(C(=O)OCC(C)C)C1c1ccccc1[N+](=O)[O-] (stereo not given) [NISOLDIPINE]
Not Active: IC50 [1] | Ki [1] | IC50 (Leukotriene C4 synthase) | IC50 (Nitric oxide synthase 1) | IC50 (Progesterone receptor) | IC50 [2] | IC50 (Estrogen receptor)

C=C1CC[C@H](O)C/C1=C/C=C1\CCC[C@]2(C)[C@@H]([C@H](C)CCCC(C)C)CC[C@@H]12 [CHOLECALCIFEROL]
Not Active: IC50 [1] | Ki [1] | IC50 (Leukotriene C4 synthase) | IC50 (Nitric oxide synthase 1) | IC50 [2] | IC50 (Cytochrome P450 2C19) | Ki (Cytochrome P450 2C19) | IC50 (Estrogen receptor)

COc1ccccc1C(=O)N1CCC(Cc2ccccc2)CC1
Not Active: IC50 [1] | Ki [1] | IC50 (Leukotriene C4 synthase) | IC50 (Nitric oxide synthase 1) | IC50 (Progesterone receptor) | IC50 [2] | IC50 (Estrogen receptor)

CCOC(=O)C(C)(C)Oc1ccc(Cl)cc1 [CLOFIBRATE]
Not Active: IC50 [1] | Ki [1] | IC50 (Leukotriene C4 synthase) | IC50 (Nitric oxide synthase 1) | IC50 (Progesterone receptor) | IC50 [2] | IC50 (Estrogen receptor)

CCOC(=O)C1=C(C)NC(C)=C(C(=O)OC)C1c1cccc([N+](=O)[O-])c1 (stereo not given) [NITRENDIPINE]
Not Active: IC50 [1] | Ki [1] | IC50 (Leukotriene C4 synthase) | IC50 (Nitric oxide synthase 1) | IC50 (Progesterone receptor) | IC50 [2] | IC50 (Estrogen receptor)

C/C=C/C[C@@H](C)[C@@H](O)[C@H]1C(=O)N[C@@H](CC)C(=O)N(C)CC(=O)N(C)[C@@H](CC(C)C)C(=O)N[C@@H](C(C)C)C(=O)N(C)[C@@H](CC(C)C)C(=O)N[C@@H](C)C(=O)N[C@H](C)C(=O)N(C)[C@@H](CC(C)C)C(=O)N(C)[C@@H](CC(C)C)C(=O)N(C)[C@@H](C(C)C)C(=O)N1C [CYCLOSPORINE]
Not Active: IC50 [1] | Ki [1] | IC50 (Leukotriene C4 synthase) | IC50 (Nitric oxide synthase 1) | IC50 (Progesterone receptor) | IC50 [2] | IC50 (Estrogen receptor)
